# Results reported in patent US8048455B2, “Treatment of cancer and inflammatory disorder” (Academia Sinica, priority 2006, dated 2011).
# What was measured:
# B16 melanoma = assay: In vivo inhibition of B16 melanoma growth in C57BL/6J mice
# Description: The chemopreventive effect of the CREa8 subfraction was evaluated on tumor growth using the B16 melanoma C57BL/6J mouse system. Six-week-old animals (4 groups of mice, 5 in each group) were used in this experiment. Group 1 mice (Sham control) were intraperitoneally (i.p.) injected with 20 μL of DMSO every 2 days throughout the experimental period, except 100 μL PBS was injected on day 0. Group 4 mice (Tumor control) were pre-treated with DMSO every 2 days, starting from day—14, for 2 weeks, inoculated with B16 tumor cells (1×10^6 cells/100 μL PBS) subcutaneously (s.c.) on the abdominal area on day 0, and then injected with DMSO every 2 days until day 21. Group 2 mice were i.p. pre-treated with CREa8 (10 mg/kg body weight per dose) every 2 days, starting from day—14, for 2 weeks, s.c. inoculated with B16 tumor cells on day 0, and then continuously treated with CREa8 (i.p.) every 2 days until day 21. Group 3 mice were similarly pre-treated with DMSO every 2 days for 2 weeks, inoculated with B16 tumor cells on day 0, and then treated with cisplatin (i.p.) every 2 days until day 21. The test mice were monitored daily, and body weights and tumor size (average of 2 dimensions) recorded every 2 days. At the end of the experiment (day 21), tumors were excised and weighed.
# The cancer prevention efficacy of the dLGG-rich fraction (CREa8) was examined in vivo in 4 groups of mice according to the method described above. Cisplatin, a cancer chemotherapeutic, was used as a reference control.
# NF-κB•DNA complex = assay: Electrophoretic mobility shift assay of NF-κB binding to consensus DNA in LPS-stimulated RAW 264.7 cells; assay type: cell-based, murine; settings: 100 μM, LPS 1 μg/mL, 90 min
# Description: EMSA was performed with the […]™ Chemiluminescent EMSA kit (Pierce Biotechnology, Rockford, Ill.). […] The DNA-protein complexes were subjected to 5-10% gradient PAGE. Competition assay with unlabeled oligonucleotide (cold DNA) was performed in parallel. […]
# NO = assay: Plasma nitrite concentration in SNP-treated mice; assay type: in vivo, Female ICR mice; settings: topical pretreatment 30 min before SNP; dLGG 10 mg/site, PTIO 3.5 mg/site
# Description: Female ICR mice were topically treated on their shaven back area of a 2-cm diameter (3.14 cm^2/site/mouse) with vehicle control (acetone), SNP (positive control), or with dLGG or PTIO for 30 minutes before SNP application. Mouse plasma samples were subjected to determine the nitrite content followed a published method (Moshage et al. Clin Chem 1995; 41:892-6).
# To examine the capability of dLGG to scavenge NO in vivo, the plasma NO concentration in SNP-insulted mice was determined with or without pretreatment with dLGG. Female ICR mice were transdermally treated with 200 μL acetone (vehicle control) or SNP (5.96 mg/site) only for 15 minutes, or pre-treated with dLGG (10 mg/site) or PTIO (3.5 mg/site) for 30 minutes before SNP treatment.
# human COX-2 promoter = assay: COX-2 promoter-driven luciferase reporter assay in TPA-treated B16 melanoma cells; assay type: cell-based, murine; settings: reference control
# Source text: A double-mutated COX-2 promoter containing mutations on both NF-κB sites was also constructed (FIG. 2). PPGL-3-Basic vector was used as a negative control in luciferase assays. COX-2 reporter activity in arbitrary units (AU) was normalized to that for the Renilla luciferase reporter.
# Murine melanoma B-16 cells co-transfected with the full-length pCOX-2-Luc and internal control plasmid pRL-TK-Luc plasmid constructs were stimulated without (control) or with TPA, in the absence or presence of the indicated concentrations of CREa8. An amount of 10 μg of total protein lysate was subjected to dual luciferase reporter assay. The induction fold of COX promoter activity by TPA treatment only is presented as 100%. The statistical analyses between […] and CREa8, aspirin, or indomethacin (Indo.) treatment were performed using Student's t-test.
# B-16 cells were co-transfected with the full-length pCOX-2-Luc and internal control Renilla pRL-TK-Luc plasmid constructs with the LIPOFECTAMINE reagent (Invitrogen). The cells were then stimulated with vehicle (0.001% DMSO) or with 50 ng/mL TPA, in the absence or presence of dLGG for 6 hours. Ten μg of total protein lysate prepared with Passive Lysis Buffer (Promega) was subjected to dual luciferase reporter assay. The induction fold of COX-2 promoter activity by TPA treatment only is presented as 100%.
# The contribution of specific cis-acting element binding sites on the transcription of COX-2 was examined. Data were obtained from 2 to 3 experiments with 3 to 6 replicates and expressed as mean±SD. Two-way ANOVA was used to analyze significance of differences.
smiles,measurement,setting,value
N.N.[Cl][Pt][Cl] [cisplatin],Average tumor size,"B16 melanoma; day 7, i.p. every 2 days, tumor control 0.73 cm",0.29 cm
same,"Average tumor size, of the tumor control",B16 melanoma; day 17,73%
same,Tumor weight to body weight ratio,"B16 melanoma; day 21, tumor control 31.3%",25.2%
same,Body weights versus other groups,B16 melanoma; throughout treatment,no significant differences
"CCCCCCCCCCCCCCCCCC(=O)O [SA, stearic acid, reference compound]",Inhibition of NF-κB•DNA complex formation (structure-activity study),NF-κB•DNA complex,little or no detectable effect
"CC/C=C\C/C=C\C/C=C\CCCCCCCC(=O)OC[C@@H](O)CO[C@@H]1O[C@H](CO)[C@H](O)[C@H](O)[C@H]1O [1LGG, 1-O-α-linolenoyl-3-O-β-galactopyranosyl-sn-glycerol]",Inhibition of NF-κB•DNA complex formation (structure-activity study),NF-κB•DNA complex,less effective than dLGG and dLG
"CC1(C)N([O])C(c2ccccc2)=[N+]([O-])C1(C)C [PTIO, 2-phenyl-4,4,5,5-tetramethylimidazoline-1-oxyl-3-oxide, reference compound]",SNP-induced increase of nitrite plasma concentration,NO,suppressed
"CC(=O)Oc1ccccc1C(=O)O [aspirin, reference compound]",Suppression of COX-2 promoter activity,human COX-2 promoter; 45 μg/mL,19%
"COc1ccc2c(c1)c(CC(=O)O)c(C)n2C(=O)c1ccc(Cl)cc1 [indomethacin, reference compound]",Suppression of COX-2 promoter activity,human COX-2 promoter; 15 μg/mL,28%
"CC/C=C\C/C=C\C/C=C\CCCCCCCC(=O)OC[C@H](CO)OC(=O)CCCCCCC/C=C\C/C=C\C/C=C\CC [dLG, 1,2-di-O-α-linolenoyl-sn-glycerol]",Inhibition of NF-κB•DNA complex formation (structure-activity study),NF-κB•DNA complex,almost completely inhibited
"CC/C=C\C/C=C\C/C=C\CCCCCCCC(=O)O[C@H](CO)CO[C@@H]1O[C@H](CO)[C@H](O)[C@H](O)[C@H]1O [2LGG, 2-O-α-linolenoyl-3-O-β-galactopyranosyl-sn-glycerol]",Inhibition of NF-κB•DNA complex formation (structure-activity study),NF-κB•DNA complex,less effective than dLGG and dLG
